Reference: patent publication US7252953B2, “Method of detecting and preventing Alzheimer's disease, particularly at prodromal and early stages” (United States of America Department of Veterans Affairs, priority 2002, dated 2007)

What was measured:
PAR1-GRK2 = test: GRK-PAR binding in microglial cells by IP and WB: PAR1-GRK2; format: cell-based, murine; conditions: thrombin 100 nM alone, 30 seconds, compared to untreated microglial cells
Protocol: (§1) Primary microglial cultures were prepared from neonatal mouse (C57BL6) brains as previously described (Reference 29) and maintained in Delbecco's modified Eagle's medium with F-12 nutrient mixture (DMEM/F12) containing 10% fetal bovine sera (FBS) and antibiotics. N9 clonal murine microglial cell cultures were maintained in Iscoves modified Delbecco's medium (IMDM) containing 5% heat-inactivated FBS, 2 mM L-glutamine, 50 μM 2-mercaptoethanol and antibiotics. Treatment of both primary and N9 microglial cells were performed under serum-free conditions. Freshly solublized Aβ (BioSource, Camarillo, Calif.) peptides were prepared and characterized as previously described (References 30 and 44) and were used in all in vitro experiments. […]
(§2) Cultured cells were lysed in pre-chilled 2×IP buffer I (Tris, 20 mM, pH 7.4; NaCl, 300 mM; EDTA, 2 mM; 2 mM EGTA, pH 8.0; 0.4 mM sodium ortho-vanadate, 2% Triton X-100; 1% NP-40; 0.4 mM PMSF) supplemented both with phosphatase and protease inhibitor cocktails. After centrifugation, the supernatants were collected and total protein concentrations were determined by the bicinchoninic acid assay (BCA). […] Both antibodies to GRK2 and GRK5 (Santa Cruz) were diluted 1:500 for WB, other routine procedures, WB for total and phospho-p44/42 MAPK, and semi-quantitative analysis of protein band density were performed as previously described (Reference 29). […]

p38 MAPK = p38 MAPK phosphorylation in microglial cells (WB); format: cell-based, murine; conditions: substance alone
Protocol: (§3) Primary microglial cultures were prepared from neonatal mouse (C57BL6) brains as previously described (Reference 29) and maintained in Delbecco's modified Eagle's medium with F-12 nutrient mixture (DMEM/F12) containing 10% fetal bovine sera (FBS) and antibiotics. N9 clonal murine microglial cell cultures were maintained in Iscoves modified Delbecco's medium (IMDM) containing 5% heat-inactivated FBS, 2 mM L-glutamine, 50 μM 2-mercaptoethanol and antibiotics. Treatment of both primary and N9 microglial cells were performed under serum-free conditions. Freshly solublized Aβ (BioSource, Camarillo, Calif.) peptides were prepared and characterized as previously described (References 30 and 44) and were used in all in vitro experiments. Unless specified, cells were always pretreated with sAβ for 5 min and then followed by challenge with α-thrombin (100 nM or as indicated), glutamate (2 mM) or LPS (5 ng/ml).
(§4) Cultured cells were lysed in pre-chilled 2×IP buffer I (Tris, 20 mM, pH 7.4; NaCl, 300 mM; EDTA, 2 mM; 2 mM EGTA, pH 8.0; 0.4 mM sodium ortho-vanadate, 2% Triton X-100; 1% NP-40; 0.4 mM PMSF) supplemented both with phosphatase and protease inhibitor cocktails. After centrifugation, the supernatants were collected and total protein concentrations were determined by the bicinchoninic acid assay (BCA). Equal amounts (250 μg) of cell lysates from each group were mixed with 20 μl (˜5 μg) of either PAR1 or PAR4 antibodies, and brought to a total volume of 1 ml in 1×IP buffer. Following a 1 hour incubation at 4° C., appropriate secondary antibody-agarose conjugates were added followed by incubation (30 min with agitation), centrifugation and sufficient washes. The pellets were resuspended in 30 μl of electrophoresis sample buffer and boiled for 5 min. The supernatants were directly used for polyacrylamide sodium dodecyl sulfate gel electrophoresis (SDS-PAGE) and WB analysis. To prepare subcellular fractions of brain samples, we homogenized fresh or fresh-frozen tissues in Tris buffered saline solution (Tris, 10 mM, pH 7.4; NaCl, 150 mM; EDTA, 1 mM; 1 mM EGTA, pH 8.0; 0.2 mM sodium ortho-vanadate) supplemented with protease inhibitor cocktails. After centrifugation (12,000 g at 4° C. for 15 min), the supernatants were collected as cytosolic fractions. The pellets were resuspended in 1×IP buffer containing protease inhibitor cocktail. Following brief sonication and centrifugation (12,000 g at 4° C. for 15 min), the supernatants were collected as membrane fractions. Both antibodies to GRK2 and GRK5 (Santa Cruz) were diluted 1:500 for WB, other routine procedures, WB for total and phospho-p44/42 MAPK, and semi-quantitative analysis of protein band density were performed as previously described (Reference 29).
(§5) In previous studies, we found thrombin signaling via PARs in microglial cells involving [Ca^2+]i increase and transient activation of both p38 and p44/42 mitogen-activated protein kinases (MAPKs) (Reference 29). To understand potential consequences of GRK dysfunction induced by sAβ, for these studies we also assessed changes in thrombin signaling in sAβ-pretreated microglial cells.
(§6) FIG. 5A, N9 microglial cells were pre-treated with 500 nM sAβ1-42 (arrow “1”) followed by 100 nM thrombin treatment (arrow “2”). Changes in [Ca^2+]i were measured as previously described (Reference 29) from three separate experiments. […] For both FIGS. 5B and 5C, lane M=Marker, 1=Control (0 min), 2=Control (25 min), 3=Aβ1-42 (25 min), 4=Thrombin (20 min), 5=Aβ1-42+thrombin (20 min post-Aβ), 6=Control (24 h), 7=Aβ1-42 (24 h), 8=Thrombin (24 h) and 9=Aβ1-42+thrombin (24 h post-Aβ). “P” and “T” indicate phosphorylated and total p38 or p44/42 MAPKs, respectively.

PAR4-GRK5 = test: GRK-PAR binding in microglial cells by IP and WB: PAR4-GRK5; format: cell-based, murine; conditions: thrombin 100 nM alone, 30 seconds, compared to untreated microglial cells
Protocol: as §1, §2

TNF-α [1] = test: TNF-α release in N9 clonal murine microglial cells; format: cell-based; conditions: for TNF-α release induced by the activator alone: single dose
Protocol: as §3
(§7) TNF-α production in microglial culture media was measured and standardized as previously described (Reference 29).
(§8) Given our results that sAβ disrupts GRK function and inhibits GPCR desensitization in microglia, we next investigated whether such signaling dysregulation might lead to cellular functional changes in microglia. Both primary and N9 clonal murine microglial cultures were used and TNF-α secretion in culture media was measured as an outcome. […] Moreover, the potentiation effect of sAβ on thrombin and glutamate-induced microglial activation was dose-dependent, with a minimal effective concentration (ECmin) of 20 nM and a maximal EC (ECmax) of 500 nM. Furthermore, the enhancement effect was not observed if sAβ was given after (10 min) thrombin or glutamate treatments. […] Together with the evidence that sAβ inhibits GRK-GPCR interactions and causes prolongation of GPCR signaling, we conclude that sAβ, by disrupting GRK function, alters microglial reactivity to specific GPCR activators.
FIG. 6A, pretreatment with sAβ1-42 potentiated (p<0.01) TNF-α release induced by increasing doses of thrombin (Thr) as indicated from primary mouse brain microglial cultures. n=4. […] The ECmin and ECmax for sAβ's potentiation are approximately 20 nM and 500 nM, respectively. n=6.

[Ca^2+]i = Ca2+ imaging (Fluo-4) in microglial cells; format: cell-based, murine
Protocol: as §3
We measured [Ca^2+]i in microglial cells using Fluo-4 (2 μM) with the aid of a Nikon BioRadiance triple laser scanning confocal microscope. Image collection, quantification and data analysis were performed as previously described (Reference 29).
as §5, §6

PAR4-GRK2 = test: GRK-PAR binding in microglial cells by IP and WB: PAR4-GRK2; format: cell-based, murine; conditions: thrombin 100 nM alone, 30 seconds, compared to untreated microglial cells
Protocol: as §1, §2

p44/42 MAPK = p44/42 MAPK phosphorylation in microglial cells (WB); format: cell-based, murine; conditions: substance alone
Protocol: as §3, §4, §5, §6

GRK5 = GRK5 subcellular distribution in sAβ-treated microglial cells (immunocytochemistry, semi-quantified); format: cell-based, murine; conditions: ICC; for translocation of GRK5 from cell membrane to cytosol: 5 min, primary murine microglial cells, serum-free medium
Protocol: Primary microglial cultures were prepared from neonatal mouse (C57BL6) brains as previously described (Reference 29) and maintained in Delbecco's modified Eagle's medium with F-12 nutrient mixture (DMEM/F12) containing 10% fetal bovine sera (FBS) and antibiotics. N9 clonal murine microglial cell cultures were maintained in Iscoves modified Delbecco's medium (IMDM) containing 5% heat-inactivated FBS, 2 mM L-glutamine, 50 μM 2-mercaptoethanol and antibiotics. Treatment of both primary and N9 microglial cells were performed under serum-free conditions.
Microglial cells were seeded onto poly-L-lysine-coated 8-chamber slides at a density of 1×10^4/well. After various treatments, cells were immediately fixed with pre-chilled (4° C.) 5% acetic acid in methanol for 45 min at 4° C., followed by washing with PBS. The fixed cells were blocked and double-stained with phalloidin-FITC (1:1,000) and anti-GRK5 (1:500) or GRK2 (1:500). Secondary antibody-Cy3 conjugates (1:500) staining, washing, mounting and confocal microscopic visualization were performed routinely as previously described (Reference 29).
Briefly, the selected cell image corresponding to GRK staining, was copied, enlarged, inverted and rotated to an appropriate position for quantification with NIH Image. […] FIGS. 3E and F show the examples of profiles for the solid-line indicated levels in FIGS. 3C and D, respectively. The dark and light grey areas in FIGS. 3E and F represent membrane and Cyto, respectively. The sum of areas for membrane and Cyto from all slices in each cell represents GRK subcellular distribution in this particular cell. For each treatment, 20 randomly selected cells were quantified and the average data were shown.
Microglial-mediated inflammation is an important pathological component of AD (Reference 28). […] Thrombin, a serine protease is known to activate protease-activated GPCRs, (PARs) such as PAR1 (Reference 29) and PAR4 in microglia.
N9 microglial cells were treated with sAβ1-42 (500 nM) for 5 minutes. […] The detailed methods for semi-quantification of GRK subcellular distribution are described in Methods section (above).

TNF-α [2] = test: TNF-α release in primary mouse brain microglial cultures; format: cell-based; conditions: 5 min pretreatment, FIG. 6A
Protocol: as §3, §7, §8
FIG. 6A, pretreatment with sAβ1-42 potentiated (p<0.01) TNF-α release induced by increasing doses of thrombin (Thr) as indicated from primary mouse brain microglial cultures. n=4. […]

[3] = within 20 min post-Aβ treatment
[4] = 5 min pretreatment, N9 cells, FIG. 6B

thrombin
increase of PAR1 binding to GRK2 (PAR1-GRK2): ~30 fold
p38 MAPK phosphorylation (p38 MAPK; 24 h): returned to basal levels
p38 MAPK phosphorylation (p38 MAPK; [3]): increased phosphorylation
increase of PAR4 binding to GRK5 (PAR4-GRK5): ~4 fold
TNF-α release induced by the activator alone (TNF-α [1]; N9 cells, FIG. 6B): significantly stimulated
[Ca^2+]i above basal levels after the rapid decrease ([Ca^2+]i; thrombin alone (100 nM)): approximately 100 nM
change of [Ca^2+]i ([Ca^2+]i; thrombin alone (100 nM)): steep and sharp increase
duration of the [Ca^2+]i level above basal ([Ca^2+]i; thrombin alone (100 nM)): at least 4 min
change of [Ca^2+]i ([Ca^2+]i; thrombin alone (100 nM), listed as Thrombin): sharp increase and rapidly decrease
increase of PAR4 binding to GRK2 (PAR4-GRK2): ~2 fold
p44/42 MAPK phosphorylation (p44/42 MAPK; 24 h): returned to basal levels
p44/42 MAPK phosphorylation (p44/42 MAPK; [3]): increased phosphorylation

sAβ1-40: Freshly solubilized soluble β-amyloid 1-40 peptide (BioSource)
translocation of GRK5 from cell membrane to cytosol (GRK5; 50 nM peptide): not

N[C@@H](CCC(=O)O)C(=O)O [glutamate]
TNF-α release induced by the activator alone (TNF-α [1]; N9 cells, FIG. 6B): significantly stimulated

sAβ1-42: Freshly solubilized soluble β-amyloid 1-42 peptide (BioSource), mixture of monomeric and oligomeric Aβ
translocation of GRK5 from cell membrane to cytosol (GRK5; 50 nM peptide): To a lesser extent, similar GRK5 changes were also observed
translocation of GRK5 from cell membrane to cytosol (GRK5; 500 nM peptide): induced a rapid translocation of GRK5 from cell membrane to cytosol
translocation of GRK5 from membrane to cytosol compartment (GRK5; 500 nM, 5 minutes, N9 microglial cells): induced a rapid translocation of GRK5 from membrane to cytosol compartment
effect of sAβ pretreatment on LPS-induced TNF-α release (TNF-α [1]; [4]): not
effect of sAβ pretreatment on glutamate-induced TNF-α release (TNF-α [1]; [4]): dose-dependently potentiated
effect of sAβ pretreatment on thrombin-induced TNF-α release (TNF-α [1]; [4]): dose-dependently potentiated
enhancement of TNF-α release when sAβ is given after thrombin or glutamate (post-treatment) (TNF-α [1]; sAβ given 10 min after thrombin or glutamate): not
change of free [Ca^2+]i ([Ca^2+]i; sAβ1-42 500 nM alone): slow and moderate increase
time for [Ca^2+]i to return to basal levels ([Ca^2+]i; sAβ1-42 500 nM alone): ≤ 4 min
effect of sAβ pretreatment on thrombin-induced TNF-α release (TNF-α [2]): potentiated
